Patent US20210252115A1, “INHIBITION OF CATALYTIC SITE COMMON TO MULTIPLE 3 ALPHA-OXIDOREDUCTASES FOR TREATMENT OF PROSTATE CANCER” (Health Research, Inc., priority 2016, published 2021)
Entries after “also recorded” stand apart in the source; their conditions may differ.

Key:
LAPC-4 cells = experiment: Androgen levels (LC-MS/MS) in transfected LAPC-4 cells; format: cell-based, human; conditions: for 5α-dione production after substrate treatment: 20 nM DIOL or 20 nM AND 12 h; for DHT levels after substrate treatment: 20 nM DIOL or 1 nM T 12 h, vs SFM
Procedure: LAPC-4 cells were plated at 1.2×10^5/well and CV-1 cells at 1×10^4/well in 6-well tissue culture plates (Corning). Media and cell pellets from two 6-well plates were combined to generate 1 media and 1 cell pellet sample for liquid chromatography-tandem mass spectrometry (LC-MS/MS) analysis. LAPC-4 cells were transfected using the Effectene Transfection Kit (Invitrogen, Grand Island, N.Y.). Forty-eight h after transfection, growth media was removed and LAPC-4 cells were washed once with Dulbecco's phosphate buffered saline (PBS, Corning). LAPC-4 cells were treated with serum-free complete media (SFM, Corning) alone or with 1 nM T, 20 nM DIOL 20 nM 5α-androstan-3α-ol-17-one (androsterone; AND) (Steraloids, Newport, R.I.) or 1 μM dutasteride (Selleckchem, Houston, Tex.) for 12 h. CV-1 cells were transfected using X-tremeGene HP transfection reagent (Roche Diagnostics Corporation, Indianapolis, Ind.). After 48 h, growth media were aspirated, CV-1 cells were washed once with PBS and incubated in SFM alone or with 20 nM AND (Steraloids) for 12 h.
After 12 h treatment, media (total 24 mL) were collected in 50 mL conical tubes (Corning). Cells were released using trypsin and collected in 15 mL conical tubes (Corning). The cells were washed 3 times using PBS, re-suspended in 1 mL PBS and 5% of the cell suspension was removed for protein concentration measurement and western blot analysis. The remaining 95% of the cell suspension was centrifuged and the supernatant was removed and discarded. Cell pellets were stored at −80° C. until analyzed using LC-MS/MS.
(§1) Cell pellet and media samples were analyzed over 9 runs for 5 androgens T, DHT, dehydroepiandrosterone, ASD and AND using a validated LC-MS/MS method. […] Study samples were quantitated using aqueous-based spiked calibration standards and pre-spiked quality control samples prepared in 2× charcoal-stripped human postmenopausal female plasma (Bioreclamation, LLC, Westbury, N.Y.).
Androgen concentrations (pmoles/mg protein) in cell lysates measured using LC-MS/MS (ng/mL) were multiplied by the total volume of the lysate (1 mL), normalized by the total amount of protein of the cell pellet (mg), divided by the molecular weight of the androgen (ng/nmole), and converted to pmoles. Media androgen concentrations (ng/mL) were multiplied by the total volume of media (24 mL), normalized against total protein of the cell culture (mg), divided by the molecular weight of the androgen (ng/nmole) and converted to pmoles. Cell pellet and media androgen concentrations were reported combined in Results and separately in Supplemental Results. Experiments were performed in triplicate.
Cell pellets were resuspended in HPLC-grade water and vortexed or sonicated to disrupt cell membranes to obtain a homogeneous suspension. Samples were extracted using 0.25 ml quality control, plasma blank or sample in 0.75-2.0 mL HPLC-grade water, 0.1 ml internal standard (IS) solution (75.0/225 pg/mL d3-T/d3-DHT) and 4 mL methyl-tert-butyl ether (MTBE, Omnisolve®, EMD Milipore, Billerica, Mass.) in glass screw-top tubes. Calibrators were prepared using 50 μl spiking solution prepared in 75% methanol and added to the extraction tube. Either the entire 1 mL cell pellet suspension was added to the extraction tube and the original container rinsed with 25% methanol in water or samples were volume and compositionally corrected. Tubes were capped with Teflon-lined caps, vortexed, rotated 15 min and centrifuged using a Sorvall model RT6000B centrifuge (Thermo Scientific) at 2,800 rpm and 4° C. for 15-30 min to separate liquid phases. The aqueous phase was frozen in a dry ice/acetone bath and MTBE layer was poured into a clean glass conical tube. MTBE was evaporated at 37° C. with nitrogen and the residue was reconstituted with 60% methanol. The suspension was centrifuged using Heraeus Multifuge X3R centrifuge (Thermo Scientific) at 2,800 rpm and 4° C. for 5 min to separate insoluble materials. An aliquot of the supernatant was injected. […]

VCaP cells = experiment: Androgen levels (LC-MS/MS) in VCaP cells; format: cell-based, human; conditions: for DHT levels after substrate treatment: VCaP, 12 h in SFM with 20 nM DIOL, 20 nM AND or 1 nM T, one cell pellet per condition; for DHT levels / DHT synthesis: VCaP in SFM, 1 μM dutasteride 12 h, no substrate added
Procedure: FIG. 8: Intracellular T and DHT levels from VCaP cells; Related to FIG. 3. VCaP cells were treated for 12 h in SFM with or without 1 μM Dut, 1 nM T, 20 nM DIOL or 20 nM AND. VCaP cells were harvested, one cell pellet was analyzed for each condition and androgen levels were measured using LC-MS/MS as described in Methods.
(§2) Experiments were performed in triplicate.
(§3) Empty plasmid, or plasmids for over-expression of RDH16 wild-type or RDH16-Y176F, K180R, were expressed into VCaP, C4-2 or CWR-R1 cells and DHT levels were measured using LC-MS/MS. […] C4-2 cells produced measurable levels of DHT that were reduced by dutasteride treatment (p=0.001; FIG. 6C; Table 10). […] C4-2 cells that expressed RDH16-Y176, K180R produced DHT levels similar to C4-2 cells with empty plasmid.

CV-1 cells = conditions: CV-1, 20 nM AND 12 h, measurable only in the media
Procedure: LAPC-4 cells were plated at 1.2×10^5/well and CV-1 cells at 1×10^4/well in 6-well tissue culture plates (Corning). Media and cell pellets from two 6-well plates were combined to generate 1 media and 1 cell pellet sample for liquid chromatography-tandem mass spectrometry (LC-MS/MS) analysis. LAPC-4 cells were transfected using the Effectene Transfection Kit (Invitrogen, Grand Island, N.Y.). Forty-eight h after transfection, growth media was removed and LAPC-4 cells were washed once with Dulbecco's phosphate buffered saline (PBS, Corning). […]
After 12 h treatment, media (total 24 mL) were collected in 50 mL conical tubes (Corning). […] Cell pellets were stored at −80° C. until analyzed using LC-MS/MS.
as §1
Androgen concentrations (pmoles/mg protein) in cell lysates measured using LC-MS/MS (ng/mL) were multiplied by the total volume of the lysate (1 mL), normalized by the total amount of protein of the cell pellet (mg), divided by the molecular weight of the androgen (ng/nmole), and converted to pmoles. […]

SRD5A = experiment: Tissue DHT levels (LC-MS/MS), Selenium and Finasteride Pre-Treatment Trial; format: in vivo, human; conditions: research subjects with CaP before radical prostatectomy, benign and malignant macro-dissected samples; data not shown
C4-2 cells = experiment: DHT levels (LC-MS/MS) in transfected C4-2 cells; format: cell-based, human
Procedure: as §2, §3

CWR-R1 cells = experiment: DHT levels (LC-MS/MS) in transfected CWR-R1 cells; format: cell-based, human
Procedure: as §2, §3

LNCaP cells = experiment: Androgen levels (LC-MS/MS) in transfected LNCaP cells; format: cell-based, human; conditions: dutasteride 12 h, cell pellet
Procedure: FIG. 11: Intracellular LNCaP T levels after treatment with dutasteride or SFM. Related to FIG. 6. LNCaP cells were transfected with empty plasmid, wild-type or Y176F, K180R RDH16, treated with SFM or SFM with dutasteride for 12 h and cell pellet androgen levels were measured using LC-MS/MS. T levels for LNCaP and western blot analysis for DDK tag.
as §2

[1] = CaP, background statement; cited from earlier work

In the case of `C[C@]12CC[C@@H](O)C[C@@H]1CC[C@@H]1[C@@H]2CC[C@]2(C)C(=O)CC[C@@H]12` [AND, 5α-androstan-3α-ol-17-one], the “5α-dione production after substrate treatment” value (shortened to “5α-dione production”) (LAPC-4 cells; LAPC-4 with empty plasmid) was “produced”, the “DHT levels after substrate treatment” value (VCaP cells) was “increased” and the “5α-dione production” value (CV-1 cells) was “only a small amount”.

In the case of `C[C@]12CC[C@@H](O)C[C@@H]1CC[C@@H]1[C@@H]2CC[C@]2(C)[C@@H](O)CC[C@@H]12` [DIOL, 5α-androstane-3α, 17β-diol], the “DHT levels after substrate treatment” value (LAPC-4 cells; LAPC-4 with empty plasmid) was “higher”, the “5α-dione production” value (LAPC-4 cells; LAPC-4 with empty plasmid) was “produced” and the “DHT levels after substrate treatment” value (VCaP cells) was “increased”.

In the case of `C[C@]12CC[C@H]3[C@@H](CCC4=CC(=O)CC[C@@]43C)[C@@H]1CC[C@@H]2O` [T, testosterone], the “DHT levels after substrate treatment” value (LAPC-4 cells; LAPC-4 with empty plasmid) was “higher” and the “DHT levels after substrate treatment” value (VCaP cells) was “not”.

In the case of `CC(C)(C)NC(=O)[C@H]1CC[C@H]2[C@@H]3CC[C@H]4NC(=O)C=C[C@]4(C)[C@H]3CC[C@]12C` [finasteride], the “CaP tissue levels of DHT” value (SRD5A) was “decreased”.

With `C[C@]12C=CC(=O)N[C@@H]1CC[C@@H]1[C@@H]2CC[C@]2(C)[C@@H](C(=O)Nc3cc(C(F)(F)F)ccc3C(F)(F)F)CC[C@@H]12` [dutasteride] the DHT levels (LAPC-4 cells; LAPC-4 expressing mutant RDH16 or DHRS9 plus dutasteride, vs LAPC-4 treated with dutasteride alone) was “lowered further”, the DHT levels (LAPC-4 cells; LAPC-4 expressing wild-type RDH16 or DHRS9, 1 μM dutasteride 12 h vs SFM) was “No effect” and the DHT levels (LAPC-4 cells; LAPC-4 with empty plasmid, 1 μM dutasteride 12 h vs SFM, cell pellet, p=0.041) was “decreased; also recorded: lower”. For the same compound, the T levels (LAPC-4 cells; all LAPC-4 cells except those expressing RDH5-Δcat, dutasteride 12 h, cell pellet) was “lowered”, the DHT levels (VCaP cells; VCaP expressing wild-type RDH16, dutasteride vs SFM) was “affected minimally” and the “DHT levels / DHT synthesis” value (VCaP cells) was “did not lower”. The “DHT levels / DHT synthesis” value (VCaP cells; listed as Dutasteride) was “did not impair DHT synthesis”, the DHT levels (C4-2 cells; C4-2 expressing wild-type RDH16, dutasteride vs SFM) was “appeared to be reduced” and the DHT levels (C4-2 cells; C4-2 with empty plasmid, dutasteride vs SFM, p=0.001 in text) was “reduced”. The DHT levels (CWR-R1 cells; CWR-R1 expressing RDH16-Y176F, K180R, dutasteride vs SFM) was “appeared lower”, the DHT levels (CWR-R1 cells; CWR-R1 with empty plasmid or wild-type RDH16, dutasteride vs SFM) was “did not lower” and the T levels (LNCaP cells) was “not detected”. For the same compound, the “intratumoral DHT levels” value [1] was “not depleted”.
